PubChem BioAssay (NCI)
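Results reflect a 48-hour exposure of cells in 96-well plates to compound at five concentrations. GI50: concentration for 50% inhibition of growth. The concentration for full growth arrest is given as TGI.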

Legend:
Assay in all cases: NCI-60 cell line screen, 48 h
PC-3 prostate = system: PC-3 prostate
SK-MEL-2 melanoma = system: SK-MEL-2 melanoma
TK-10 renal = system: TK-10 renal
NCI-H522 lung = system: NCI-H522 lung
NCI-H226 lung = system: NCI-H226 lung
786-0 renal = system: 786-0 renal
UO-31 renal = system: UO-31 renal
SF-268 CNS = system: SF-268 CNS
UACC-257 melanoma = system: UACC-257 melanoma
CAKI-1 renal = system: CAKI-1 renal
SR leukemia = system: SR leukemia
EKVX NSCLC = system: EKVX NSCLC
A498 renal = system: A498 renal
OVCAR-3 ovarian = system: OVCAR-3 ovarian
OVCAR-8 ovarian = system: OVCAR-8 ovarian
SNB-19 CNS = system: SNB-19 CNS
T-47D breast = system: T-47D breast
DU-145 prostate = system: DU-145 prostate
RXF 393 renal = system: RXF 393 renal
K-562 leukemia = system: K-562 leukemia
MOLT-4 leukemia = system: MOLT-4 leukemia
LOX IMVI melanoma = system: LOX IMVI melanoma
SF-295 CNS = system: SF-295 CNS
KM12 colon = system: KM12 colon
SN12C renal = system: SN12C renal
SF-539 CNS = system: SF-539 CNS
IGROV1 ovarian = system: IGROV1 ovarian
MDA-MB-435 = system: MDA-MB-435
NCI-H460 lung = system: NCI-H460 lung
CCRF-CEM leukemia = system: CCRF-CEM leukemia
COLO 205 colon = system: COLO 205 colon
RPMI-8226 leukemia = system: RPMI-8226 leukemia
HOP-92 NSCLC = system: HOP-92 NSCLC
HCC-2998 colon = system: HCC-2998 colon
MCF7 breast = system: MCF7 breast
NCI/ADR-RES ovarian = system: NCI/ADR-RES ovarian
OVCAR-5 ovarian = system: OVCAR-5 ovarian
HOP-62 NSCLC = system: HOP-62 NSCLC
HCT-116 colon = system: HCT-116 colon
BT-549 breast = system: BT-549 breast
UACC-62 melanoma = system: UACC-62 melanoma
M14 melanoma = system: M14 melanoma
SK-MEL-28 melanoma = system: SK-MEL-28 melanoma
HT29 colon = system: HT29 colon
HS 578T breast = system: HS 578T breast
MALME-3M melanoma = system: MALME-3M melanoma
A549 NSCLC = system: A549 NSCLC
SK-OV-3 ovarian = system: SK-OV-3 ovarian
HCT-15 colon = system: HCT-15 colon
SK-MEL-5 melanoma = system: SK-MEL-5 melanoma
SW-620 colon = system: SW-620 colon
ACHN renal = system: ACHN renal
SNB-75 CNS = system: SNB-75 CNS
U251 CNS = system: U251 CNS
NCI-H23 lung = system: NCI-H23 lung
HL-60(TB) leukemia = system: HL-60(TB) leukemia
MDA-MB-231 breast = system: MDA-MB-231 breast
OVCAR-4 ovarian = system: OVCAR-4 ovarian

Which results are given for `CC(C)(C)Nc1nc2c(OCCc3ccccc3)cccn2c1-c1ccc(Cl)cc1`?
GI50 (PC-3 prostate): 25.3 µM; TGI (PC-3 prostate): > 100 µM; GI50 (SK-MEL-2 melanoma): 12.8 µM; TGI (SK-MEL-2 melanoma): 28.8 µM; GI50 (TK-10 renal): 25.3 µM; TGI (TK-10 renal): 79.5 µM; GI50 (NCI-H522 lung): 16.1 µM; TGI (NCI-H522 lung): 54.3 µM; GI50 (NCI-H226 lung): 18.1 µM; TGI (NCI-H226 lung): 60 µM; GI50 (786-0 renal): 19.4 µM; TGI (786-0 renal): 45.2 µM; GI50 (UO-31 renal): 11.3 µM; TGI (UO-31 renal): 39.7 µM; GI50 (SF-268 CNS): 27.1 µM; TGI (SF-268 CNS): > 100 µM; GI50 (UACC-257 melanoma): 26.4 µM; TGI (UACC-257 melanoma): 89.9 µM; GI50 (CAKI-1 renal): 25.1 µM; TGI (CAKI-1 renal): > 100 µM; GI50 (SR leukemia): 19.3 µM; TGI (SR leukemia): > 100 µM; GI50 (EKVX NSCLC): 22.5 µM; TGI (EKVX NSCLC): 86 µM; GI50 (A498 renal): 15.2 µM; TGI (A498 renal): 62.1 µM; GI50 (OVCAR-3 ovarian): 16.4 µM; TGI (OVCAR-3 ovarian): 64.8 µM; GI50 (OVCAR-8 ovarian): 27.1 µM; TGI (OVCAR-8 ovarian): > 100 µM; GI50 (SNB-19 CNS): 32.3 µM; TGI (SNB-19 CNS): > 100 µM; GI50 (T-47D breast): 17.7 µM; TGI (T-47D breast): > 100 µM; GI50 (DU-145 prostate): 25 µM; TGI (DU-145 prostate): > 100 µM; GI50 (RXF 393 renal): 13.4 µM; TGI (RXF 393 renal): 35.6 µM; GI50 (K-562 leukemia): 26.4 µM; TGI (K-562 leukemia): > 100 µM; GI50 (MOLT-4 leukemia): 18.3 µM; TGI (MOLT-4 leukemia): 95.5 µM; GI50 (LOX IMVI melanoma): 17.1 µM; TGI (LOX IMVI melanoma): 33.3 µM; GI50 (SF-295 CNS): 24.8 µM; TGI (SF-295 CNS): 61.8 µM; GI50 (KM12 colon): 22.2 µM; TGI (KM12 colon): 69.9 µM; GI50 (SN12C renal): 22.4 µM; TGI (SN12C renal): > 100 µM; GI50 (SF-539 CNS): 18.5 µM; TGI (SF-539 CNS): 37.8 µM; GI50 (IGROV1 ovarian): 25.7 µM; TGI (IGROV1 ovarian): > 100 µM; GI50 (MDA-MB-435): 30.3 µM; TGI (MDA-MB-435): > 100 µM; GI50 (NCI-H460 lung): 18.9 µM; TGI (NCI-H460 lung): 50.5 µM; GI50 (CCRF-CEM leukemia): 29.9 µM; TGI (CCRF-CEM leukemia): 97.2 µM; GI50 (COLO 205 colon): 16.4 µM; TGI (COLO 205 colon): 34.7 µM; GI50 (RPMI-8226 leukemia): 20.8 µM; TGI (RPMI-8226 leukemia): 60.4 µM; GI50 (HOP-92 NSCLC): 17.4 µM; TGI (HOP-92 NSCLC): 67.2 µM; GI50 (HCC-2998 colon): 28.1 µM; TGI (HCC-2998 colon): > 100 µM; GI50 (MCF7 breast): 21.1 µM; TGI (MCF7 breast): 93.5 µM; GI50 (NCI/ADR-RES ovarian): 21.6 µM; TGI (NCI/ADR-RES ovarian): 82.4 µM; GI50 (OVCAR-5 ovarian): 23.7 µM; TGI (OVCAR-5 ovarian): > 100 µM; GI50 (HOP-62 NSCLC): 20.2 µM; TGI (HOP-62 NSCLC): 52.8 µM; GI50 (HCT-116 colon): 17.6 µM; TGI (HCT-116 colon): 43.4 µM; GI50 (BT-549 breast): 19.6 µM; TGI (BT-549 breast): 49.5 µM; GI50 (UACC-62 melanoma): 16 µM; TGI (UACC-62 melanoma): 38.3 µM; GI50 (M14 melanoma): 26.3 µM; TGI (M14 melanoma): 71.2 µM; GI50 (SK-MEL-28 melanoma): 27.6 µM; TGI (SK-MEL-28 melanoma): > 100 µM; GI50 (HT29 colon): 19.7 µM; TGI (HT29 colon): 53.6 µM; GI50 (HS 578T breast): 20.8 µM; TGI (HS 578T breast): 77.5 µM; GI50 (MALME-3M melanoma): 23.9 µM; TGI (MALME-3M melanoma): 59 µM; GI50 (A549 NSCLC): 24 µM; TGI (A549 NSCLC): > 100 µM; GI50 (SK-OV-3 ovarian): 24.5 µM; TGI (SK-OV-3 ovarian): 75.7 µM; GI50 (HCT-15 colon): 17.3 µM; TGI (HCT-15 colon): 43.1 µM; GI50 (SK-MEL-5 melanoma): 17 µM; TGI (SK-MEL-5 melanoma): 32.6 µM; GI50 (SW-620 colon): 28.1 µM; TGI (SW-620 colon): > 100 µM; GI50 (ACHN renal): 27.3 µM; TGI (ACHN renal): > 100 µM; GI50 (SNB-75 CNS): 17.6 µM; TGI (SNB-75 CNS): > 100 µM; GI50 (U251 CNS): 18.7 µM; TGI (U251 CNS): 48.7 µM; GI50 (NCI-H23 lung): 25.3 µM; TGI (NCI-H23 lung): 83.4 µM; GI50 (HL-60(TB) leukemia): 25.7 µM; TGI (HL-60(TB) leukemia): 74.5 µM; GI50 (MDA-MB-231 breast): 16.7 µM; TGI (MDA-MB-231 breast): 35 µM; GI50 (OVCAR-4 ovarian): 26.7 µM; TGI (OVCAR-4 ovarian): > 100 µM
